Measurements: US9527803B2, “Crystal form VII of agomelatine, preparation method and use thereof and pharmaceutical composition containing same” (LES LABORATOIRES SERVIER, priority 2011, dated 2016)
≈ marks a conversion by molar mass, not a printed value. Read-outs that look alike come from different tables or passages of the source.

How the values were obtained:
Assay type in all cases: physicochemical
[1] = Storage stability of crystalline forms at 40° C. for 20 days, purity and content by HPLC; details: for Content: external standard method; for Purity: internal standard method
Method: Crystalline forms II, III, VI and VII (obtained through embodiment 3) are each placed in thermostatic containers at a temperature of 40° C. and stored for 20 days, with the stability of these crystalline samples being studied using the method of High Performance Liquid Chromatography.
1. Purity Measurement of the Sample
Chromatographic conditions: Octadecyl silane chemically bonded silica is used as packing; a mixed solution of 10 mmol/L phosphate buffer (adjusted to pH 7.0 with sodium hydroxide) and acetonitrile in the ratio 2:7 by volume acts as the mobile phase; column temperature 40° C.; and detection wavelength 220 nm. Purity is measured using an internal standard method.
In the mobile phase, crystalline forms II, III, VI and VII are distributed into 1 mg/mL solutions, 10 μL of each of which are then passed into a liquid chromatograph, with their chromatograms being recorded.
The reference sample purity measurement method was used, with measurements being made using an external standard method, the results are shown in Table I.

[2] = Determination of crystalline stability (pharmacopoeia stability assessment method); set-up: key: ✓: stable; x: unstable; details: for Crystalline stability, influencing factor: high temperature / Crystalline stability, influencing factor: high humidity / Crystalline stability, influencing factor: illumination: exposed for 10 days; for Crystalline stability, influencing factor: high temperature: 60° C.; for Crystalline stability, influencing factor: high humidity: 92.5% RH; for Crystalline stability, influencing factor: high humidity / Crystalline stability, long term testing (6 months) / Crystalline stability, long term testing (9 months) / Crystalline stability, long term testing (12 months): 25° C.; for Crystalline stability, influencing factor: illumination: 4500 lx; for Crystalline stability, accelerated testing: hermetically sealed for 6 months, 40° C., 75% RH; for Crystalline stability, long term testing (6 months) / Crystalline stability, long term testing (9 months) / Crystalline stability, long term testing (12 months): hermetically sealed, 60% RH
Method: 4. Determination of Crystalline Stability
Measured using the pharmacopoeia stability assessment method: • 1) Influencing factor testing (exposed for 10 days): high temperature (60° C.), illumination (4500 lx), high humidity (92.5% RH, 25° C.) • 2) Accelerated testing (hermetically sealed for 6 months): temperature 40° C., humidity 75% RH • 3) Long term testing (hermetically sealed for 12 months): temperature 25° C., humidity 60% RH

[3] = Measurement of water solubility (HPLC, external standard method)
Description: 3. Measurement of Water Solubility
The HPLC method was used to determine water solubility, with measurements being made using an external standard method.

[4] = After storage in thermostatically controlled containers at 40° C. for 20 days

Content [1, 4] [%]	Purity [1, 4] [%]	Content ([1]; Before storage) [%]	Purity ([1]; Before storage) [%]	Crystalline stability, influencing factor: high temperature [2]	Crystalline stability, influencing factor: high humidity [2]	Crystalline stability, influencing factor: illumination [2]	Crystalline stability, accelerated testing [2]	Crystalline stability, long term testing (6 months) [2]	Crystalline stability, long term testing (9 months) [2]	Crystalline stability, long term testing (12 months) [2]	solubility ([3]; read-out: Solubility) [µg/mL]	solubility [3] [µg/mL]	Structure (SMILES)
99.6	99.7	99.8	99.8	✓	✓	✓	✓	✓	✓	✓	330 (≈ 1360 µM)	–	COc1ccc2cccc(CCNC(C)=O)c2c1 [Crystalline form VII, N-[2-(7-methoxy-1-naphthyl)ethyl]acetamide]
99.4	99.3	99.5	99.9	–	–	–	–	–	–	–	–	–	COc1ccc2cccc(CCNC(C)=O)c2c1 [Crystalline form III, N-[2-(7-methoxy-1-naphthyl)ethyl]acetamide]
99.1	99.6	99.3	99.7	x*	✓	✓	✓	✓	✓	x	–	–	COc1ccc2cccc(CCNC(C)=O)c2c1 [Crystalline form VI, N-[2-(7-methoxy-1-naphthyl)ethyl]acetamide]
99.6	99.3	99.5	99.7	✓*	✓	✓	✓	✓	✓	✓	–	301 (≈ 1240 µM)	COc1ccc2cccc(CCNC(C)=O)c2c1 [Crystalline form II, N-[2-(7-methoxy-1-naphthyl)ethyl]acetamide]
